Values joined by “and” are separate entries in the source; they are usually repeats but may differ in a detail not shown here. Identical values can stand only once. Toxic doses and inconclusive results are not listed. The calls were made as follows: active = survival T/C of 150% or more; inactive = T/C below 125% in these data.
System: P388 leukemia ip, CD2F1 mice, survival T/C
Assay: NCI In Vivo Anticancer Drug Screen. Data for tumor model P388 Leukemia (intraperitoneal) in CD2F1 (CDF1) mice
Conditions: endpoint: median survival time, higher = longer survival
Outline: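 Mice carrying the transplanted tumor received test compound or vehicle. Survival was recorded in each group, and the value is the treated-group measurement divided by that of the vehicle-treated control group.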

[1] = dose: 50.0 mg/kg/injection, schedule: Q01DX005 (ip), vehicle: saline
[2] = dose: 6.25 mg/kg/injection, schedule: Q01DX005 (ip), vehicle: Klucel (hydroxypropylcellulose) (HPC)
[3] = dose: 12.5 mg/kg/injection, schedule: Q01DX005 (ip), vehicle: Klucel (hydroxypropylcellulose) (HPC)
[4] = dose: 100.0 mg/kg/injection, schedule: Q04DX002 (ip), vehicle: saline with Tween-80
[5] = dose: 200.0 mg/kg/injection, schedule: Q04DX002 (ip), vehicle: saline with Tween-80
[6] = dose: 60.0 mg/kg/injection, schedule: Q01DX005 (ip), vehicle: saline with Tween-80
[7] = dose: 120.0 mg/kg/injection, schedule: Q01DX005 (ip), vehicle: saline with Tween-80
[8] = dose: 240.0 mg/kg/injection, schedule: Q01DX005 (ip), vehicle: saline with Tween-80
[9] = dose: 12.5 mg/kg/injection, schedule: Q01DX009 (ip), vehicle: saline
[10] = dose: 400.0 mg/kg/injection, schedule: Q01DX009 (ip), vehicle: saline with Tween-80
[11] = dose: 50.0 mg/kg/injection, schedule: Q01DX005 (ip), vehicle: saline with Tween-80
[12] = dose: 100.0 mg/kg/injection, schedule: Q01DX005 (ip), vehicle: saline with Tween-80
[13] = dose: 200.0 mg/kg/injection, schedule: Q01DX005 (ip), vehicle: saline with Tween-80
[14] = dose: 50.0 mg/kg/injection, schedule: Q01DX009 (ip), vehicle: saline with Tween-80
[15] = dose: 100.0 mg/kg/injection, schedule: Q01DX009 (ip), vehicle: saline with Tween-80
[16] = dose: 200.0 mg/kg/injection, schedule: Q01DX009 (ip), vehicle: saline with Tween-80
[17] = dose: 50.0 mg/kg/injection, schedule: Q01DX005 (ip), vehicle: Klucel (hydroxypropylcellulose) (HPC)
[18] = dose: 100.0 mg/kg/injection, schedule: Q01DX005 (ip), vehicle: Klucel (hydroxypropylcellulose) (HPC)
[19] = dose: 200.0 mg/kg/injection, schedule: Q01DX005 (ip), vehicle: Klucel (hydroxypropylcellulose) (HPC)
[20] = dose: 12.5 mg/kg/injection, schedule: Q01DX009 (ip), vehicle: other

Measured: T/C

Cc1nc(-c2nc(C(=O)NCCC[S+](C)C)cs2)cs1
inactive: [1] 104 % of control

NC(=S)NN=C(C1CC1)C1CC1
inactive: [2] 98 % of control | [3] 97 % of control

N#CC(c1ccccc1)c1nccc2ccccc12 (configuration not stated)
inactive: [4] 99 % of control | [5] 100 % of control

O=c1ccnc2ccccn12
inactive: [6] 94 % of control | [7] 107 % of control | [8] 100 % of control

CC(C)(C)SC(=O)C1(C(O)c2ccccc2)CC1 (configuration not stated)
inactive: dose: 100.0 mg/kg/injection, schedule: Q04DX003 (ip), vehicle: Klucel (hydroxypropylcellulose) (HPC) 106 % of control | dose: 200.0 mg/kg/injection, schedule: Q04DX003 (ip), vehicle: Klucel (hydroxypropylcellulose) (HPC) 115 % of control | dose: 400.0 mg/kg/injection, schedule: Q04DX003 (ip), vehicle: Klucel (hydroxypropylcellulose) (HPC) 112 % of control

CC[C@@]1(O)C[C@H](OC2CCC(OC3CC(OC(C)=O)C(OC(C)=O)C(C)O3)C(C)O2)c2c(O)c3c(c(O)c2[C@H]1C(=O)OC)C(=O)c1cccc(O)c1C3=O (some centres not stated)
inactive: dose: 3.13 mg/kg/injection, schedule: Q04DX003 (ip), vehicle: distilled water + Tween-80 100 % of control | dose: 6.25 mg/kg/injection, schedule: Q04DX003 (ip), vehicle: distilled water + Tween-80 100 % of control | dose: 12.5 mg/kg/injection, schedule: Q04DX003 (ip), vehicle: distilled water + Tween-80 101 % of control | dose: 25.0 mg/kg/injection, schedule: Q04DX003 (ip), vehicle: distilled water + Tween-80 105 % of control | dose: 50.0 mg/kg/injection, schedule: Q04DX003 (ip), vehicle: distilled water + Tween-80 103 % of control

CCCCCCCCCCCCC[N+]1([O-])CCOCC1
inactive: [9] 101 % of control | dose: 25.0 mg/kg/injection, schedule: Q01DX009 (ip), vehicle: saline 100 % of control | dose: 50.0 mg/kg/injection, schedule: Q01DX009 (ip), vehicle: saline 89 % of control and 96 % of control

CCC[C@@H]1[C@@H](CCC)N1C(=N)OCC
inactive: dose: 12.5 mg/kg/injection, schedule: Q01DX005 (ip), vehicle: suspension in saline 99 % of control | dose: 25.0 mg/kg/injection, schedule: Q01DX005 (ip), vehicle: suspension in saline 106 % of control | [1] 103 % of control | dose: 50.0 mg/kg/injection, schedule: Q01DX005 (ip), vehicle: suspension in saline 106 % of control

C1OC1CO[C@@H]1CO[C@H]2[C@@H]1OC[C@H]2OCC1CO1 (some centres not stated)
active: dose: 100.0 mg/kg/injection, schedule: Q01DX009 (ip), vehicle: saline 194 % of control | dose: 100.0 mg/kg/injection, schedule: Q01DX009 (ip), vehicle: suspension in saline 163 % of control | dose: 200.0 mg/kg/injection, schedule: Q01DX009 (ip), vehicle: saline 192 % of control | [10] 213 % of control | dose: 400.0 mg/kg/injection, schedule: Q04DX003 (ip), vehicle: saline with Tween-80 186 % of control | dose: 600.0 mg/kg/injection, schedule: Q04DX003 (ip), vehicle: saline with Tween-80 200 % of control
inactive: [9] 120 % of control | dose: 400.0 mg/kg/injection, schedule: Q01DX009 (ip), vehicle: saline 94 % of control | dose: 400.0 mg/kg/injection, schedule: Q01DX009 (ip), vehicle: suspension in saline 100 % of control

O=C1c2ccccc2CN(C(=Nc2ccccc2)Nc2ccccc2)c2ccccc21
inactive: [11] 90 % of control | [12] 91 % of control | [13] 102 % of control

Nc1c2c(c(N)c3c1C(=O)c1ccccc1C3=O)OCO2
inactive: [6] 100 % of control | [7] 98 % of control | [8] 98 % of control

COc1ccc(C2=CC(=O)N(C(C)C)C2=O)cc1
inactive: dose: 12.5 mg/kg/injection, schedule: Q01DX009 (ip), vehicle: saline with Tween-80 107 % of control | dose: 25.0 mg/kg/injection, schedule: Q01DX009 (ip), vehicle: saline with Tween-80 116 % of control | [14] 107 % of control | [15] 108 % of control | [16] 109 % of control

Nc1cc(Cl)c(N=Nc2ccccc2)c(N)n1
inactive: [15] 103 % of control | [16] 107 % of control | [10] 94 % of control

Cc1ccc(C2(C(=O)O)CC2)cc1
inactive: [15] 100 % of control | [16] 100 % of control | [10] 90 % of control

CCOC(=O)c1ccc(N=NN(C)CC2OC3OC(C)(C)OC3C2OC)cc1 (configuration not stated)
inactive: [4] 98 % of control | [5] 98 % of control | dose: 400.0 mg/kg/injection, schedule: Q04DX002 (ip), vehicle: saline with Tween-80 102 % of control

CCOC(=O)N[C@H]1CCc2cc(OC)c(OC)c(OC)c2-c2ccc(SC)c(=O)cc21
active: dose: 0.75 mg/kg/injection, schedule: Q01DX009 (ip), vehicle: other 163 % of control | dose: 1.5 mg/kg/injection, schedule: Q01DX009 (ip), vehicle: other 172 % of control
inactive: dose: 3.0 mg/kg/injection, schedule: Q01DX009 (ip), vehicle: other 109 % of control and 114 % of control

Nc1ccc2nc[nH]c(=O)c2c1
inactive: dose: 3.0 mg/kg/injection, schedule: Q01DX005 (ip), vehicle: Klucel (hydroxypropylcellulose) (HPC) 96 % of control | [2] 95 % of control | dose: 12.0 mg/kg/injection, schedule: Q01DX005 (ip), vehicle: Klucel (hydroxypropylcellulose) (HPC) 101 % of control | [3] 100 % of control | dose: 25.0 mg/kg/injection, schedule: Q01DX005 (ip), vehicle: Klucel (hydroxypropylcellulose) (HPC) 111 % of control

N#CC(=O)Nc1ccc(Cl)cc1
inactive: dose: 3.75 mg/kg/injection, schedule: Q01DX005 (ip), vehicle: saline with Tween-80 103 % of control | dose: 7.5 mg/kg/injection, schedule: Q01DX005 (ip), vehicle: saline with Tween-80 111 % of control | dose: 15.0 mg/kg/injection, schedule: Q01DX005 (ip), vehicle: saline with Tween-80 109 % of control

O=C(Cc1ccccc1)c1ccc(C(F)(F)F)cc1
inactive: dose: 12.5 mg/kg/injection, schedule: Q01DX009 (ip), vehicle: Klucel (hydroxypropylcellulose) (HPC) 104 % of control | dose: 25.0 mg/kg/injection, schedule: Q01DX009 (ip), vehicle: Klucel (hydroxypropylcellulose) (HPC) 95 % of control | dose: 50.0 mg/kg/injection, schedule: Q01DX009 (ip), vehicle: Klucel (hydroxypropylcellulose) (HPC) 104 % of control and 87 % of control

O=S(=O)(Cc1ccccc1)/N=C/c1ccccc1
inactive: [14] 103 % of control and 105 % of control | [15] 99 % of control and 105 % of control | [16] 107 % of control and 123 % of control

CS(=O)(=O)C(CCC(=O)c1cccs1)C(=O)c1ccccc1 (configuration not stated)
inactive: [17] 89 % of control | [18] 91 % of control | [19] 89 % of control

CC1=CC2N(C=C1)C(c1ccc(Cl)cc1)=NON2c1cc(C)ccn1 (configuration not stated)
inactive: [11] 92 % of control | [12] 86 % of control and 94 % of control | [7] 87 % of control | [13] 100 % of control | [8] 93 % of control

CC1(C)CC(=O)C(C(c2cccc([N+](=O)[O-])c2)C2C(=O)CC(C)(C)CC2=O)C(=O)C1
inactive: [17] 96 % of control | [18] 98 % of control | [19] 102 % of control

COc1ccc(OC)c2c1CC(C(C)=O)CC2=O (configuration not stated)
inactive: [20] 99 % of control | dose: 25.0 mg/kg/injection, schedule: Q01DX009 (ip), vehicle: other 112 % of control | dose: 50.0 mg/kg/injection, schedule: Q01DX009 (ip), vehicle: other 105 % of control | dose: 100.0 mg/kg/injection, schedule: Q01DX009 (ip), vehicle: other 108 % of control | dose: 200.0 mg/kg/injection, schedule: Q01DX009 (ip), vehicle: other 107 % of control

CC(=S)NC(O)C(=O)c1ccccc1 (configuration not stated)
inactive: [14] 121 % of control

CN(C)C1C(O)C2Oc3c(cc(O)c4c3C(=O)c3cc5c(c(O)c3C4=O)C(N3CCCC3)CC(C)(O)C5)C(C)(O2)C1O (configuration not stated)
inactive: dose: 3.12 mg/kg/injection, schedule: Q01DX009 (ip), vehicle: other 113 % of control | dose: 6.25 mg/kg/injection, schedule: Q01DX009 (ip), vehicle: other 116 % of control | [20] 122 % of control

O=C(COc1ccc(Cl)cc1Cl)Nc1ccccc1C(=O)c1ccccc1
inactive: [14] 101 % of control | [15] 101 % of control | [16] 94 % of control

— PubChem BioAssay AID330 (DTP/NCI, 2004)
